Measured values reported in patent US8895522B2, “Composition and method for the prevention, treatment and/or alleviation of an inflammatory disease” (Index Pharmaceuticals AB, priority 2005, dated 2014).
Entries after “also recorded” stand apart in the source; their conditions may differ.

How the values were obtained:
[1] = test system: LPS-induced airway inflammation in mice; assay: Third LPS induced asthma study in mice, BALF cell counts; type: in vivo; conditions: for number of infiltrating inflammatory cells in the BAL fluid: oligonucleotides 150 μg/animal tracheal 18 h prior to LPS, dexamethasone 5 mg/kg i.p. 1 h before, FIG. 6; for influx of leukocytes in BALF compared to the control group / influx of neutrophils in BALF compared to the control group: 150 μg/animal, significance if the non-responding control individual is excluded; for influx of leukocytes in BALF compared to the control group: FIG. 7; for influx of neutrophils in BALF compared to the control group: FIG. 8
Protocol: As with examples 1 and 2, aim of the study was to examine the pharmaceutical effects of SEQ. ID. NO. 3 using airway inflammation as disease endpoint, and to compare the efficacy with that of corticosteroids. In addition, a number of control oligonucleotides were included being SEQ.ID.NO 4, and SEQ.ID.NO 7. The induction of LPS induced asthma and the protocol of analyses was conducted as described in Example 2.
Briefly, LPS-induced airway inflammation in mice was treated with SEQ.ID.NOs 3, 4 and 7 (150 μg/animal) administered by tracheal instillation 18 h prior to challenge with 5 μg LPS. The untreated group represents healthy individuals and mice in the control group were given solvent only (H2O+LPS). The control treatment of dexamethasone (5 mg/kg, i.p.) was given one hour before LPS instillation. Analysis of BAL fluid was performed 20 hours after LPS instillation. The total number of leukocytes and neutrophils in BAL fluid is shown. Data expressed as mean±SD (n=6). ***p<0.001, *p<0.05, using One-way ANOVA with Dunnett's post hoc corrections versus control group.

murine spleen cells [2] = assay: Induction of IL-10 from murine spleen cells (ELISpot); type: cell-based; conditions: mouse splenocytes, 48 hours incubation; for induction of IL-10 (positive spots per well): FIG. 9
Protocol: (§1) The spleen was excised from a test animal. A single cell suspension was prepared using a nylon cell strainer (100 μm). The cells were washed once in complete RPMI medium at 1200 rpm for 7-10 minutes, whereupon the supernatant was poured off and the cells resuspended. 1 ml of “red blood cell lysing buffer” was added, and the mixture incubated for 1-2 minutes at RT. 5 ml of complete RPMI was added and the mixture centrifuged as above (C2).
(§2) The supernatant was poured off, the pellet resuspended and another 5 ml of complete RPML added. The cells were counted by dilution in trypan blue, so that between 50-100 cells were counted in the area.
(§3) Approximately 500,000 mouse splenocyte cells per well were incubated for 48 hours in the presence of the different oligonucleotides at the concentrations indicated. Specifically, SEQ.ID.NO 3, SEQ.ID.NO 4, and SEQ.ID.NO 7. Following incubation the wells were developed according to the kit suppliers recommendations and the average number of positive spots per well were determined using a AID ELISpot reader system, (Strassberg Germany).
(§4) Elispot assays where performed according to the manufactures recommended guidelines (MabTech) and the plates were analyzed using an AID ELISpot reader system (Autoimmun Diagnostika GmbH, Strassberg, Germany).

murine spleen cells [3] = assay: Induction of IFN-gamma from murine spleen cells (ELISpot); type: cell-based; conditions: mouse splenocytes, 48 hours incubation, FIG. 10
Protocol: as §1, §2, §3
Regarding the production of IFN-gamma, mouse splenocytes were treated as described above, with the intention to monitor levels of IFN-gamma by Elispot asssy. Identical conditions and concentrations of oligonucleotides where used.
as §4

human PBMC [4] = assay: Induction of IL-10 from healthy human PBMC (ELISpot); type: cell-based; conditions: PBMC from 5 healthy individuals, 48 hours; for induction of IL-10 producing cells: FIG. 11
Protocol: (§5) Whole blood was obtained from healthy blood donors. PBMCs were prepared from 30 ml whole blood according to the following protocol:
(§6) 30 ml blood was transferred directly into heparinized tubes. All blood was transferred into one 50 ml Falcon tube and PBS added up to 50 ml. 15 ml Ficoll (17-1440-03, obtained from Amersham Bioscience AB, Uppsala) was then added into two falcon tubes (50 ml). The PBS-treated blood was then carefully added on the top of to Ficoll, 25 ml to each tube. The tubes were then centrifuged 25 min at 1700 RPM at RT (20° C.).
(§7) RPMIc medium was prepared under sterile conditions, using a 0.22 uM filter. (RPMIc denotes a RPMI 1640 culture medium (R0883, Sigma) supplemented with 5% heat-inactivated (56° C.,1 h) FCS 1.5 mM L-glutamine (G7513, Sigma), 100 U/ml penicillin and 100 ug/ml streptomycin, PEST (P0781, Sigma), hepes (H0887, Sigma), and gentamycin (G1272, Sigma)).
(§8) The interphase was carefully pipetted from the two tubes into 2x 50mi Falcon tubes. PBS was added up to 50 ml in each tube, and the tubes centrifuged for 10 min at 1700 RPM (4° C.).
(§9) The supernatant was discarded, and PBS added to 30 ml, whereupon the tubes were centrifuged at 10 min at 1500 RPM (4° C.). Again, the supernatant was discarded, 10 ml PBS added, and the pellets from the two falcon tubes pooled.
(§10) The cells were counted and left in PBS, then centrifuged at 1200 RPM, 10 min. Medium was then added to obtain the concentration of interest, and the cells counted (16 squares)×3. The mean value was calculated and multiplied with the dilution factor×10^4=cells/ml. Diluting the cells to 10 million/ml will result in 500.000 cells/50 ul medium, 6 million/ml will be 300.000/50 ul medium.
as §4
Approximately 500,000 PBMC cells per well, derived from blood from healthy human donors, were incubated for 48 hours in the presence of the different oligonucleotides. Specifically, SEQ.ID.NO 1, SEQ.ID.NO 2, SEQ.ID.NO 6 and SEQ.ID.NO 8. Following incubation, the wells were developed according to the kit supplier's recommendations and the average number of positive cells producing IL-10 per well were counted using an AID ELISpot reader system, (Autoimmun Diagnostika GmbH, Strassberg, Germany).

human PBMC [5] = assay: Induction of IFN-gamma from healthy human PBMC (ELISpot); type: cell-based; conditions: PBMC from 7 healthy individuals, 48 hours, FIG. 12
Protocol: as §5, §6
as §7, with “Sigma)). […]” for “Sigma)).”
The cells were counted and left in PBS, then centrifuged at 1200 RPM, 10 min. Medium was then added to obtain the concentration of interest, and the cells counted (16 squares)×3. The mean value was calculated and multiplied with the dilution factor×10^4=cells/ml. […]
Elispot assays where performed according to the manufactures recommended guidelines (MabTech) and the plates were analyzed using an AID ELISpot reader system (Autoimmun Diagnostika GmbH, Strassberg, Germany). […]

human PBMC [6] = assay: Induction of IFN-alpha from healthy human PBMC (ELISpot); type: cell-based; conditions: PBMC from 10 healthy individuals, 48 hours; for induction of IFN-alpha producing cells: FIG. 13
Protocol: as §5, §6, §7, §8, §9, §10, §4
For this assay again 500,000 PBMC cells per well, derived from healthy human blood were incubated for 48 hours in the presence of the different oligonucleotides. Specifically, SEQ.ID.NO 1, SEQ.ID.NO 2, and SEQ.ID.NO 8. Following incubation, the wells were developed according to the kit suppliers recommendations and the average number of positive cells producing IFN-alpha per well were determined using an AID ELISpot reader.

[7] = test system: LPS induced airway inflammation in mice; assay: Second LPS induced asthma study in mice, BALF cell counts; type: in vivo; conditions: single dose 150 ug tracheal instillation 18 h prior to LPS; BALF 20 h; p=0.005
Protocol: As with example 2, aim of the study was to examine the pharmaceutical effects of SEQ. ID. NO. 3 using airway inflammation as disease endpoint, and to compare the efficacy with that of corticosteroids. This study included larger numbers of animals per group to increases statistical significance. The induction of LPS induced asthma and the protocol of analyses was conducted as described in example 2.
Briefly, mice were treated with an SEQ.ID.NO 3 (150 μg/animal) administered by tracheal instillation 18 h prior to challenge with 5 μg LPS. One group of mice represented healthy untreated individuals. Control mice were given solvent only (H2O) and LPS. One group received dexamethasone (5 mg/kg) one hour before LPS instillation and one group were given a combination treatment. Analysis of BALF was performed 20 hours after the last treatment. Total number of cells in BALF and number of neutrophils is shown. Data is expressed as mean±SD. ***=p<0.001 and **=p<0.01, in treated groups vs the control group (one-way ANOVA and Bonferroni post hoc test). Calculations were performed by SPSS software (12.0). n=6 in all groups.

[8] = test system: LPS induced airway inflammation in mice; assay: First animal study: LPS-induced airway inflammation in mice, analysis of leukocytes in BALF; type: in vivo, C57BL/6 mice
Protocol: C57BL/6 mice were purchased from Bomholtgaard, Ry, Denmark. Animals were fed with standard chow and water ad libitum and allowed to acclimatize for at least 7 days in an accredited animal facility before use. In all experiments female mice of ages between 9-11 weeks were used. All experiments were approved by the local ethical committee for animal experiments in Umea, Sweden.
Bacterial endotoxin, LPS (Escherichia coli 0128:B12, Sigma, St. Louis, Mo.) was administered to anaesthetised mice (enflurane) by tracheal instillation in a total volume of 50 μl in a concentration of 5 μg. Control mice were given solvent alone (endotoxin-free distilled water). Through previous experiments the optimum concentration of LPS was determined to be 5 μg.
The mice were sacrificed by cervical dislocation 20 h after LPS instillation and their tracheae was cannulated with polyethylene tubing. Bronchoalveolar 20 lavage (BAL) was performed using 1-ml aliquots of ice-cold Hanks balanced salt solution to a recovered volume of 4 ml. Total number of leucocytes in bronchoalveolar lavage fluid (BALF) was counted using a Bürker chamber and trypan blue solution. Differential cell counts were determined on duplicate cytocentrifuged preparations stained with May-Grünewald Gemisa. Three 25 hundred cells were counted from each slide and the percentage of neutrophils determined.
Mice were treated with an experimental oligonucleotide (SEQ.ID.NO 3, in concentrations of 25 μg, 100 μg or 150 μg. The oligonucleotide was administrated by tracheal instillation to anaesthetised mice in a total volume of 50 μl 18 h prior to instillation of 5 μg LPS. Control mice received 50 μl endotoxin-free distilled water.
To compare the effect of the oligonucleotide to conventional treatment with anti-inflammatory corticosteroids, one group of mice received dexamethasone (Sigma St Louis, Mo.). Dexamethasone (10 mg/kg body weight) dissolved in PBS was 6(12) injected intraperitoneally (i.p) into mice 1 h prior LPS exposure. […]
The results are expressed as mean+standard error of the mean (SEM). […]

| Substance | number of infiltrating inflammatory cells in the BAL fluid [1] | concentration at which IL-10 producing cells are first induced (murine spleen cells [2]) [µM] | induction of IL-10 (positive spots per well) (murine spleen cells [2]) | induction of IFN-gamma compared to medium alone (murine spleen cells [3]) | induction of IL-10 producing cells (human PBMC [4]) | induction of IFN-alpha producing cells (human PBMC [6]) | influx of leukocytes in BALF compared to the control group [1] | influx of neutrophils in BALF compared to the control group [1] | also measured |
| --- | --- | --- | --- | --- | --- | --- | --- | --- | --- |
| 5′-T*C*C*A*T*G*A*C*G*T*T*C*C*T*G*A*C*G*T*T-3′ [SEQ.ID.NO 7] | more dramatic level of inhibition being as effective as dexamethasone | 0.1 | induce significant levels of IL-10 | capable of inducing significant levels of IFN-gamma |  |  |  |  |  |
| 5′-G*G*T GCA TCG ATG CAG*G*G*G*G*G-3′ (GGTGCATCGATGCAGGGGGG; listed as DNA, chemistry not fully specified) [SEQ.ID.NO 6] |  |  |  |  | strong potential to induce IL-10 |  |  |  |  |
| 5′-G*G*A*ACAGTTGCTCCAT*G*G*C-3′ (antisense GGAACAGTTGCTCCATGGC; listed as DNA, chemistry not fully specified) [SEQ.ID.NO 2, (Hu p65 rev)AS] |  |  |  |  | failed to induce IL-10 | fails to induce any measurable levels of IFN-alpha |  |  | induction of IFN-gamma producing cells versus background (human PBMC [5]): background level is not exceeded; concentration from which IL-10 producing cells are induced (human PBMC [4]): around 100 uM |
| 5′-G*A*A*ACAGATGCTCCAT*G*G*T-3′ (antisense GAAACAGATGCTCCATGGT; listed as DNA, chemistry not fully specified) [SEQ.ID.NO 4, (Mu p65 rev)AS] | little effect |  | no induction | no such inducing potential |  |  | no effect | no effect |  |
| 5′-T*C*G*T*C*G*T*T*T*T*G*T*C*G*T*T*T*T*G*T*C*G*T*T-3′ [SEQ.ID.NO 8] |  |  |  |  | strong potential to induce IL-10 | strong potential to induce IFN-alpha |  |  | concentration at which induction of IFN-alpha starts / is apparent (human PBMC [6]): 0.1 µM |
| 5′-G*A*A*ACAGATCGTCCAT*G*G*T-3′ (antisense GAAACAGATCGTCCATGGT; listed as DNA, chemistry not fully specified) [SEQ.ID.NO 3, (Mu p65)AS, CpG-containing ODN] | reduced numbers of infiltrating inflammatory cells | 5 | induce significant levels of IL-10 | capable of inducing significant levels of IFN-gamma |  |  | significantly reduced inflammatory response | significantly reduced inflammatory response | reduction in BAL fluid cell number verses control [7]: approximately 50%; reduction in the number of recovered neutrophils in BAL ([8]; 150 μg by tracheal instillation 18 h prior to LPS, BALF 20 h after LPS): more than 50%; anti-inflammatory effect compared with dexamethasone ([8]; 150 μg intratracheal vs dexamethasone 10 mg/kg i.p. 1 h prior to LPS): at least as powerful as high-dose treatment with dexamethasone; neutrophils in BALF / neutrophilic response in the airways ([8]; 25, 100 or 150 μg by tracheal instillation 18 h prior to 5 μg LPS, BALF 20 h after LPS): dose-dependent reduction; also recorded: significantly reduced neutrophilic response |
